Measured values from PubChem BioAssay AID264 (DTP/NCI, 2004).
Where “and” joins values, the source holds several entries; their conditions need not be identical. Identical values can stand only once. Inconclusive results are not listed.

Test system: nude mice, LX-1 lung xenograft intrarenal, tumor weight T/C
Assay: NCI In Vivo Anticancer Drug Screen. Data for tumor model Human Lung LX-1 Xenograft (intrarenal inoculation) in NU/NU Swiss (nude) mice
Conditions: endpoint: mean tumor weight change, higher = larger tumour
Description: The antitumor activity of compounds was measured in mice bearing transplantable tumors. Survival or tumor size were measured and the results are expressed as the measurement made in the treated group (T) divided by the measurement made in the vehicle treated control group (C). The tumor model used in this assay is Human Lung LX-1 Xenograft (intrarenal inoculation) in NU/NU Swiss (nude) mice

[1] = dose: 300.0 mg/kg/injection, schedule: Q04DX003 (sc), vehicle: Klucel (hydroxypropylcellulose) (HPC)
[2] = dose: 600.0 mg/kg/injection, schedule: Q04DX003 (sc), vehicle: Klucel (hydroxypropylcellulose) (HPC)
[3] = dose: 1200.0 mg/kg/injection, schedule: Q04DX003 (sc), vehicle: Klucel (hydroxypropylcellulose) (HPC)
[4] = dose: 300.0 mg/kg/injection, schedule: Q04DX003 (sc), vehicle: saline with Tween-80
[5] = dose: 600.0 mg/kg/injection, schedule: Q04DX003 (sc), vehicle: saline with Tween-80
[6] = dose: 1200.0 mg/kg/injection, schedule: Q04DX003 (sc), vehicle: saline with Tween-80
[7] = dose: 2400.0 mg/kg/injection, schedule: Q04DX003 (sc), vehicle: Klucel (hydroxypropylcellulose) (HPC)

O=c1nc(-c2ccco2)sc(=O)[nH]1
T/C (dose: 150.0 mg/kg/injection, schedule: Q04DX003 (sc), vehicle: Klucel (hydroxypropylcellulose) (HPC)): 90 % of control | T/C [1]: 68 % of control | T/C [2]: 53 % of control | T/C [3]: 38 % of control

CO[C@H]1Nc2c(ccc(C)c2O)C(=O)N2C=C(/C=C/C(N)=O)C[C@@H]12
T/C (dose: 0.25 mg/kg/injection, schedule: Q04DX003 (sc), vehicle: saline + alcohol): 48 % of control | T/C (dose: 0.5 mg/kg/injection, schedule: Q04DX003 (sc), vehicle: saline + alcohol): 75 % of control | T/C (dose: 1.0 mg/kg/injection, schedule: Q04DX003 (sc), vehicle: saline + alcohol): 115 % of control | T/C (dose: 2.0 mg/kg/injection, schedule: Q04DX003 (sc), vehicle: saline + alcohol): 39 % of control

CC[C@@H](C)[C@@H]1NC(=O)C(NC(=O)C(CC(C)C)N(C)C(=O)C2CCCN2C(=O)C(C)O)C(C)OC(=O)C(Cc2ccc(OC)cc2)N(C)C(=O)C2CCCN2C(=O)C(CC(C)C)NC(=O)C(C)C(=O)C(C(C)C)OC(=O)C[C@H]1O (some centres not stated)
T/C (dose: 75.0 micrograms/kg/injection, schedule: Q04DX003 (sc), vehicle: distilled water + alcohol): 28 % of control | T/C (dose: 600.0 micrograms/kg/injection, schedule: Q04DX003 (sc), vehicle: distilled water + alcohol): 85 % of control and 87 % of control | T/C (dose: 1200.0 micrograms/kg/injection, schedule: Q04DX003 (sc), vehicle: distilled water + alcohol): 87 % of control

CS(=O)(=O)OCCCCOS(C)(=O)=O
T/C (dose: 25.0 mg/kg/injection, schedule: Q01DX010 (sc), vehicle: saline with Tween-80): 41 % of control

O=C(O[Si](Cc1ccccc1)(Cc1ccccc1)Cc1ccccc1)N(CCCl)CCCl
T/C (dose: 100.0 mg/kg/injection, schedule: Q04DX003 (sc), vehicle: saline with Tween-80): 53 % of control | T/C (dose: 200.0 mg/kg/injection, schedule: Q04DX003 (sc), vehicle: saline with Tween-80): 120 % of control

CCOC(=O)C(CC(C)C)NC(=O)C(N)Cc1ccc(N(CCCl)CCCl)cc1 (configuration not stated)
T/C (dose: 15.0 mg/kg/injection, schedule: Q04DX003 (sc), vehicle: water): 72 % of control | T/C (dose: 30.0 mg/kg/injection, schedule: Q04DX003 (sc), vehicle: water): 55 % of control

Cc1cc2c(C(C)C)c(O)c(O)c(C=O)c2c(O)c1-c1c(C)cc2c(C(C)C)c(O)c(O)c(C=O)c2c1O
T/C (dose: 37.5 mg/kg/injection, schedule: Q04DX003 (sc), vehicle: saline with Tween-80): 85 % of control | T/C (dose: 75.0 mg/kg/injection, schedule: Q04DX003 (sc), vehicle: saline with Tween-80): 75 % of control

NC(=S)N/N=C/c1ccc(OC(=O)COc2ccc(Cl)cc2)cn1
T/C [4]: 54 % of control | T/C [5]: 44 % of control | T/C [6]: 23 % of control

CCC1OCC(C(Cl)CCl)O1 (configuration not stated)
T/C [1]: 115 % of control | T/C [2]: 88 % of control | T/C [3]: 26 % of control

CCCC(=O)Nc1ncnc2c1ncn2C1OC2COP(=O)(O)OC2C1OC(=O)CCC (configuration not stated)
T/C (dose: 100.0 mg/kg/injection, schedule: Q01DX010 (sc), vehicle: saline): 122 % of control | T/C (dose: 200.0 mg/kg/injection, schedule: Q01DX010 (sc), vehicle: saline): 92 % of control | T/C (dose: 400.0 mg/kg/injection, schedule: Q01DX010 (sc), vehicle: saline): 81 % of control

COCCCNC1=C(C#N)C(=O)NC(c2cccc([N+](=O)[O-])c2)S1 (configuration not stated)
T/C [4]: 109 % of control | T/C [5]: 78 % of control | T/C [6]: 124 % of control | T/C (dose: 2400.0 mg/kg/injection, schedule: Q04DX003 (sc), vehicle: saline with Tween-80): 68 % of control

CCC1CC2CN(CCc3c([nH]c4ccccc34)C(C(=O)OC)(c3cc4c(cc3OC)N(C)C3C(O)(C(=O)OC)C(OC(C)=O)C5(CC)C=CCN6CCC43C65)C2)C1 (configuration not stated)
T/C (dose: 4.0 mg/kg/injection, schedule: Q04DX003 (sc), vehicle: saline): 63 % of control and 64 % of control | T/C (dose: 4.0 mg/kg/injection, schedule: Q04DX003 (sc), vehicle: suspension in saline): 31 % of control and 33 % of control | T/C (dose: 16.0 mg/kg/injection, schedule: Q04DX003 (sc), vehicle: saline): 6 % of control and 12 % of control

COC1=C(N)C(=O)c2nc(-c3nc(C(=O)O)c(C)c(-c4ccc(OC)c(OC)c4O)c3N)ccc2C1=O
T/C (dose: 0.13 mg/kg/injection, schedule: Q01DX010 (sc), vehicle: saline): 8 % of control | T/C (dose: 0.25 mg/kg/injection, schedule: Q01DX010 (sc), vehicle: saline): 7 % of control and -6 % of control | T/C (dose: 1.0 mg/kg/injection, schedule: Q01DX010 (sc), vehicle: saline): -85 % of control

CC1C=NNC1=O (configuration not stated)
T/C (dose: 100.0 mg/kg/injection, schedule: Q01DX010 (sc), vehicle: saline with Tween-80): 97 % of control | T/C (dose: 200.0 mg/kg/injection, schedule: Q01DX010 (sc), vehicle: saline with Tween-80): 270 % of control | T/C (dose: 400.0 mg/kg/injection, schedule: Q01DX010 (sc), vehicle: saline with Tween-80): 82 % of control

CC(C)[C@](O)(C(=O)OCC1=CCN2CC[C@@H](O)[C@@H]12)[C@H](C)O
T/C (dose: 150.0 mg/kg/injection, schedule: Q04DX003 (sc), vehicle: water): 80 % of control | T/C (dose: 300.0 mg/kg/injection, schedule: Q04DX003 (sc), vehicle: water): 91 % of control | T/C (dose: 600.0 mg/kg/injection, schedule: Q04DX003 (sc), vehicle: water): 82 % of control | T/C (dose: 1200.0 mg/kg/injection, schedule: Q04DX003 (sc), vehicle: water): 70 % of control

O=C1CN(CN2CCOCC2)C(=O)CN1CN1CCOCC1
T/C (dose: 50.0 mg/kg/injection, schedule: Q01DX010 (sc), vehicle: suspension in saline): 116 % of control | T/C (dose: 200.0 mg/kg/injection, schedule: Q01DX010 (sc), vehicle: suspension in saline): 156 % of control

Cc1ccc(C2NC(=O)c3ccccc3N2)s1 (configuration not stated)
T/C [2]: 106 % of control | T/C [3]: 86 % of control | T/C [7]: 82 % of control | T/C (dose: 4800.0 mg/kg/injection, schedule: Q04DX003 (sc), vehicle: Klucel (hydroxypropylcellulose) (HPC)): 94 % of control

Oc1c(Cl)cc(C(c2cc(Cl)c(O)c(Cl)c2)C(c2cc(Cl)c(O)c(Cl)c2)c2cc(Cl)c(O)c(Cl)c2)cc1Cl
T/C [1]: 88 % of control | T/C [2]: 66 % of control | T/C [3]: 55 % of control | T/C [7]: 66 % of control

Cc1c(N)nc(C(CC(N)=O)NCC(N)C(N)=O)nc1C(=O)NC(C(=O)NC(C)C(O)C(C)C(=O)NC(C(=O)NCCc1nc(-c2nc(C(=O)NCCCNCCCc3ccccn3)cs2)cs1)C(C)O)C(OC1OC(CO)C(O)C(O)C1OC1OC(CO)C(O)C(OC(N)=O)C1O)c1cnc[nH]1 (configuration not stated)
T/C (dose: 3.0 mg/kg/injection, schedule: Q01DX010 (sc), vehicle: water): 16 % of control | T/C (dose: 12.0 mg/kg/injection, schedule: Q01DX010 (sc), vehicle: water): -82 % of control

O=C(NO)c1ccc(O)c(O)c1
T/C (dose: 200.0 mg/kg/injection, schedule: Q04DX003 (sc), vehicle: distilled water + Tween-80): 103 % of control | T/C (dose: 400.0 mg/kg/injection, schedule: Q04DX003 (sc), vehicle: distilled water + Tween-80): 74 % of control | T/C (dose: 800.0 mg/kg/injection, schedule: Q04DX003 (sc), vehicle: distilled water + Tween-80): 78 % of control

Cc1cc(NCCCN(C)C)c2ccc3c(ccc4c(NCCCN(C)C)cc(C)nc43)c2n1
T/C (dose: 9.38 mg/kg/injection, schedule: Q04DX003 (sc), vehicle: saline with Tween-80): 86 % of control | T/C (dose: 18.75 mg/kg/injection, schedule: Q04DX003 (sc), vehicle: saline with Tween-80): 82 % of control

CC1=C(C)C(=O)O[C@@H]([C@](C)(O)[C@]2(O)CC[C@@]3(O)[C@@H]4C[C@H]5O[C@]56[C@@H](O)C=CC(=O)[C@]6(C)[C@H]4CC[C@]23C)C1
T/C (dose: 4.0 mg/kg/injection, schedule: Q01DX010 (sc), vehicle: saline): 61 % of control | T/C (dose: 64.0 mg/kg/injection, schedule: Q01DX010 (sc), vehicle: saline): 121 % of control

CCCCN(CCCC)C(Cl)=Nc1ccccc1
T/C (dose: 400.0 mg/kg/injection, schedule: Q04DX003 (sc), vehicle: other): 116 % of control

ClCCCCCCCCCCc1ccccc1
T/C (dose: 100.0 mg/kg/injection, schedule: Q01DX010 (sc), vehicle: Klucel (hydroxypropylcellulose) (HPC)): 260 % of control | T/C (dose: 200.0 mg/kg/injection, schedule: Q01DX010 (sc), vehicle: Klucel (hydroxypropylcellulose) (HPC)): 94 % of control | T/C (dose: 400.0 mg/kg/injection, schedule: Q01DX010 (sc), vehicle: Klucel (hydroxypropylcellulose) (HPC)): 71 % of control | T/C (dose: 800.0 mg/kg/injection, schedule: Q01DX010 (sc), vehicle: Klucel (hydroxypropylcellulose) (HPC)): 52 % of control

COC1C(OC(=O)/C=C/C=C/C=C/C=C/C(=O)O)CCC2(CO2)C1C1(C)OC1CC=C(C)C (configuration not stated)
T/C (dose: 75.0 mg/kg/injection, schedule: Q04DX003 (sc), vehicle: saline): 76 % of control | T/C (dose: 150.0 mg/kg/injection, schedule: Q04DX003 (sc), vehicle: saline): 81 % of control | T/C (dose: 300.0 mg/kg/injection, schedule: Q04DX003 (sc), vehicle: saline): 75 % of control | T/C (dose: 600.0 mg/kg/injection, schedule: Q04DX003 (sc), vehicle: saline): 66 % of control
